The values that follow come from ChEMBL document CHEMBL1136849, “Anthranilimide based glycogen phosphorylase inhibitors for the treatment of type 2 diabetes. Part 3: X-ray crystallographic characterization, core and urea optimization and in vivo efficacy” (Bioorg Med Chem Lett, 2009).

Series [1] concerns the target T1, Glycogen phosphorylase, liver form (Homo sapiens, UniProt P06737).
T1 sequence (P06737 whole entry): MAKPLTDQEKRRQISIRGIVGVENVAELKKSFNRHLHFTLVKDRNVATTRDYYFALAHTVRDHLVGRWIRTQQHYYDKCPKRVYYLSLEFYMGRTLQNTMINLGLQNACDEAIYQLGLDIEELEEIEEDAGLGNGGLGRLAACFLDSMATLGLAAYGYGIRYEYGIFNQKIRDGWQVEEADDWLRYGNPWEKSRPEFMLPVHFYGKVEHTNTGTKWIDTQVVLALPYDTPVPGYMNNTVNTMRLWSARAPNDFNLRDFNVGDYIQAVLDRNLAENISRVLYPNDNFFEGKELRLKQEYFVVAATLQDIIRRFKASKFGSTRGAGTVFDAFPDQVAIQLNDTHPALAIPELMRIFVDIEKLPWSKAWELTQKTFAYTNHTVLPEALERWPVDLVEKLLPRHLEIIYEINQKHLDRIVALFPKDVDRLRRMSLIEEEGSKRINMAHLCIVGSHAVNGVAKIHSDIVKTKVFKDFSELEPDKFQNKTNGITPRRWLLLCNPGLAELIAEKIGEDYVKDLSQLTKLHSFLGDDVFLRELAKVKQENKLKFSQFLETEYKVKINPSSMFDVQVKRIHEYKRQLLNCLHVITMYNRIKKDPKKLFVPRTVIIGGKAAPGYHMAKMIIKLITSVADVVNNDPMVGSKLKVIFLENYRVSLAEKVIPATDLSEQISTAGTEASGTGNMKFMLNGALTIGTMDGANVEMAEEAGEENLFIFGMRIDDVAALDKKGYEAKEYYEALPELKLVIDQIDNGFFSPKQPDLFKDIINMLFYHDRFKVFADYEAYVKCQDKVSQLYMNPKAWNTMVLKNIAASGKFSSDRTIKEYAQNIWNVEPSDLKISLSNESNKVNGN
Nature of the series: Inhibition of human liver glycogen phosphorylase a by coupled kinetic fluorescent intensity assay.

The target of series [2] is T1, Glycogen phosphorylase, liver form. Nature of the series: Inhibition of human glycogen phosphorylase a in HepG2 cells assessed as inhibition of forskolin-stimulated glycogenolysis. The series is classed as cell-based.
The test system of series [3] is Rattus norvegicus. Put plainly: Reduction of glucagon-induced glucose AUC in CD rat at 5 mg/kg, po preincubated for 2 hrs before glucagon challenge. It is filed as functional. Details: scale not given: the % may be the effect or the level left.
Series [4] concerns Rattus norvegicus. Nature of the series: Reduction of glucagon-induced glucose AUC in CD rat at 2 mg/kg, po preincubated for 2 hrs before glucagon challenge. It is filed as functional. Details: scale not given: the % may be the effect or the level left.
Series [5] concerns Mus musculus. Nature of the series: Antidiabetic effect in ob/ob B6.V-lep[ob]/J mouse assessed as decrease in blood glucose level at 15 mg/kg, po after 3 hrs. The series is classed as functional.
Series [6] is described as follows: Clearance in rat at 1 mg/kg, iv and 5 mg/kg, po. The series is classed as ADME, organism-based. Conditions: in vivo.
Series [7] can be described thus: Half life in rat at 1 mg/kg, iv and 5 mg/kg, po. It is filed as ADME, organism-based. Conditions: in vivo.
A short description of series [8]: Bioavailability in rat at 1 mg/kg, iv and 5 mg/kg, po. Conditions: in vivo. It is filed as ADME, organism-based.
Series [9] is described as follows: Cmax in rat at 5 mg/kg, po. Details: dose 5 mg/kg, route oral. The note with it: in vivo. The series is classed as ADME, organism-based.

For `Cc1cc(C)c(NC(=O)Nc2ccccc2C(=O)N[C@H](C(=O)O)[C@@H](C)OC(C)(C)C)c(C)c1`, the figures for the concentration for half-maximal inhibition (IC50) in series [1] and in [2] were 542 nM and 1680 nM, respectively.

For the molecule `CCCCc1cc(C)c(NC(=O)Nc2cc(F)ccc2C(=O)N[C@H](C(=O)O)C2CCCCC2)c(C)c1`, the IC50 is 49 nM in series [1] and 716 nM in series [2].

For `Cc1cc(C)c(NC(=O)Nc2cc(-c3ccc(F)c(F)c3)ccc2C(=O)N[C@H](C(=O)O)[C@@H](C)OC(C)(C)C)c(C)c1`, the figures for the IC50 in series [1] and in [2] were 13 nM and 171 nM, respectively.

Take `Cc1cc(CC2CC2)cc(C)c1NC(=O)Nc1cc(F)ccc1C(=O)N[C@H](C(=O)O)[C@@H](C)OC(C)(C)C`: the figures for the IC50 in series [1] and in series [2] were 4 nM and 133 nM, respectively. The Activity in [3] stood at 36%; in [4], 22%.

Turning to `Cc1cc(C)c(NC(=O)Nc2cc(-c3ccc(F)cc3)ccc2C(=O)N[C@H](C(=O)O)[C@@H](C)OC(C)(C)C)c(C)c1`, the half-inhibitory concentration (IC50) in series [1] was found to be 7 nM; in [2] it was 88 nM.

As for `Cc1cc(C)c(NC(=O)Nc2cc(-c3cccc(F)c3)ccc2C(=O)N[C@H](C(=O)O)[C@@H](C)OC(C)(C)C)c(C)c1`, the values for the 50% inhibitory concentration (IC50) in series [1] and in series [2] were 15 nM and 104 nM, respectively. The Activity in [3] is 32%; in series [4], 10%.

For `COc1ccccc1-c1ccc(C(=O)N[C@H](C(=O)O)[C@@H](C)OC(C)(C)C)c(NC(=O)Nc2c(C)cc(C)cc2C)c1`, the IC50 in series [1] came to 28 nM; in series [2], 353 nM.

For the molecule `CCCc1cc(C)c(NC(=O)Nc2cc(-c3cccc(F)c3)ccc2C(=O)N[C@H](C(=O)O)[C@@H](C)OC(C)(C)C)c(C)c1`, the IC50 in series [1] amounted to 4 nM; in series [2], 156 nM.

Consider `COc1cccc(-c2ccc(C(=O)N[C@H](C(=O)O)[C@@H](C)OC(C)(C)C)c(NC(=O)Nc3c(C)cc(C)cc3C)c2)c1`, for which the IC50 in series [1] was determined as 8 nM; in series [2], 109 nM.

In the case of `Cc1cc(CC2CC2)cc(C)c1NC(=O)Nc1cc(-c2cccc(F)c2)ccc1C(=O)N[C@H](C(=O)O)[C@@H](C)OC(C)(C)C`, the IC50 in series [2] stood at 145 nM. For the same molecule, the Activity in series [3] amounted to 65%; in series [4], 62%; in [5] it was 103 mg/dL. In [6], this molecule returned a clearance of 15 mL/min/kg. Besides, the half-life in series [7] is 2.3 h. This molecule also registered a bioavailability in series [8] of 27%. This molecule returned a Cmax in series [9] of 536 ng/mL.

For the molecule `Cc1cc(C)c(NC(=O)Nc2cc(F)ccc2C(=O)N[C@H](C(=O)O)[C@@H](C)OC(C)(C)C)c(C)c1`, the IC50 in series [1] turned out to be 506 nM; in series [2], 1820 nM.

Regarding `Cc1cccc(C)c1NC(=O)Nc1cc(F)ccc1C(=O)N[C@H](C(=O)O)C1CCCCC1`, the IC50 stood at 1070 nM in series [1] and 8260 nM in series [2].

For `CCc1cc(C)c(NC(=O)Nc2cc(F)ccc2C(=O)N[C@H](C(=O)O)C2CCCCC2)c(C)c1`, the IC50 was found to be 87 nM in series [1] and 513 nM in [2].

`Cc1cc(C)c(NC(=O)Nc2cc(-c3ccccc3)ccc2C(=O)N[C@H](C(=O)O)[C@@H](C)OC(C)(C)C)c(C)c1`: the IC50 was 10 nM in series [1] and 126 nM in series [2].

`CCCc1cc(C)c(NC(=O)Nc2cc(F)ccc2C(=O)N[C@H](C(=O)O)C2CCCCC2)c(C)c1`: the IC50 in series [1] amounted to 19 nM; in [2], 229 nM.

With `CCCc1cc(C)c(NC(=O)Nc2cc(-c3ccc(F)c(F)c3)ccc2C(=O)N[C@H](C(=O)O)[C@@H](C)OC(C)(C)C)c(C)c1`, the IC50 turned out to be 7 nM in series [1] and 181 nM in series [2].

For the molecule `CCCc1cc(C)c(NC(=O)Nc2cc(-c3ccc(OC)cc3)ccc2C(=O)N[C@H](C(=O)O)[C@@H](C)OC(C)(C)C)c(C)c1`, the IC50 in series [2] turned out to be 135 nM.

Take `Cc1cc(CC2CC2)cc(C)c1NC(=O)Nc1cc(F)ccc1C(=O)N[C@H](C(=O)O)C1CCCCC1`: the values for the half-maximal inhibitory concentration (IC50) in series [1] and in [2] were 13 nM and 384 nM, respectively.

On to `COc1ccc(-c2ccc(C(=O)N[C@H](C(=O)O)[C@@H](C)OC(C)(C)C)c(NC(=O)Nc3c(C)cc(C)cc3C)c2)cc1`, for which the IC50 in series [1] amounted to 3 nM; in series [2], 34 nM.

As for `Cc1cc(C)c(NC(=O)Nc2cc3ccccc3cc2C(=O)N[C@H](C(=O)O)[C@@H](C)OC(C)(C)C)c(C)c1`, in series [3], the Activity is recorded as 25%.

As for `CCCc1cc(C)c(NC(=O)Nc2cc(F)ccc2C(=O)N[C@H](C(=O)O)[C@@H](C)OC(C)(C)C)c(C)c1`, the figures for the IC50 in series [1] and in series [2] were 10 nM and 147 nM, respectively.

For `Cc1cc(C)c(NC(=O)Nc2cc(F)ccc2C(=O)N[C@H](C(=O)O)C2CCCCC2)c(C)c1`, the IC50 in series [1] is 143 nM; in series [2], 1030 nM.
